The values below come from ChEMBL document CHEMBL1806427, “Pyridine-derived γ-secretase modulators” (Bioorg Med Chem Lett, 2011).

The source made the active and inactive calls. Bounds are passed on as bounds.

In data set [1] the target is Gamma-secretase. Briefly: Inhibition of gamma-secretase in human SHSY5Y cells expressing human recombinant Swedish variant of APP K595N/M596L assessed as reduction of amyloid beta42 level after 48 hrs by AlphaLISA assay. Type of data set: cell-based. As to conditions: sh-sy5y. In general terms: Bead proximity is the source of the signal in Alpha formats.
In data set [2] the target is Gamma-secretase. Briefly: Inhibition of gamma-secretase in human SHSY5Y cells expressing human recombinant Swedish variant of APP K595N/M596L assessed as reduction of amyloid beta40 level after 48 hrs by AlphaLISA assay. To be noted: sh-sy5y. Type of data set: cell-based.
Data set [3] is described as follows: Inhibition of gamma-secretase expressed in african green monkey CV1 cells co-expressing Gal4 DNA-binding/transactivation domain assessed as inhibition of notch processing after 22 hrs by luciferase reporter assay. Type of data set: cell-based. As to conditions: CV-1, 22 h.
Data set [4] can be described thus: Ratio of drug level in brain to blood in Sprague-Dawley rat at 30 mg/kg, po. Set-up: dose 30 mg/kg, route oral. The format is ADME, organism-based. As to conditions: brain/whole blood, read-out: BBR.
For the next data set, the system named is Blood. The experiment in a line: Drug level in Sprague-Dawley rat blood at 30 mg/kg, po. The format is ADME, organism-based. Also noted: dose 30 mg/kg, route oral. To be noted: in vivo, read-out: Drug uptake.
Data set [5] relates to Rattus norvegicus. The experiment in a line: Toxicity in Sprague-Dawley rat assessed as effect on Notch-mediated CD8 level in thymocytes at 30 mg/kg/day, po for 5 days measured 6 hrs after last dose. Set-up: route oral. The format is organism-based. As to conditions: in vivo.
The test system of data set [6] is Rattus norvegicus. The experiment in a line: Toxicity in Sprague-Dawley rat assessed as effect on Notch-mediated CD4 level in thymocytes at 30 mg/kg/day, po for 5 days measured 6 hrs after last dose. Type of data set: organism-based. Set-up: route oral. To be noted: in vivo.
A further data set concerns SH-SY5Y. Briefly: Toxicity in human SH-SY5Y cells assessed as cell viability up to 3 uM by WST-1 assay. Type of data set: cell-based. In general terms: Tetrazolium dyes change colour on reduction, which living cells bring about.
The test system of data set [7] is Rattus norvegicus. The experiment in a line: Antialzheimer activity in Sprague-Dawley rat assessed as reduction of amyloid beta42 level in brain at 30 mg/kg/day, po for 5 days measured 6 hrs after last dose. Type of data set: functional. Also noted: scale not given: the % may be the effect or the level left.
The nature of data set [8]: Drug level in Sprague-Dawley rat brain at 30 mg/kg/day, po for 5 days measured 6 hrs after last dose. Type of data set: ADME, organism-based. Set-up: route oral. As to conditions: read-out: Drug uptake.
The subject of data set [9] is Rattus norvegicus. Briefly: Toxicity in Sprague-Dawley rat assessed as effect on Notch-mediated Hes-1 mRNA level in ileum at 30 mg/kg/day, po for 5 days measured 6 hrs after last dose. Type of data set: organism-based. Also noted: route oral. To be noted: in vivo.
The test system of a further data set is Brain. The experiment in a line: Drug level in Sprague-Dawley rat brain at 30 mg/kg, po. Set-up: dose 30 mg/kg, route oral. To be noted: in vivo, read-out: Drug uptake. The format is ADME, organism-based.
The nature of data set [10]: Volume of distribution at steady state in Sprague-Dawley rat at 1 mg/kg, iv and 2 mg/kg, po. The format is ADME, organism-based. To be noted: in vivo, read-out: Vdss.
Data set [11] in a line: Blood clearance in Sprague-Dawley rat at 1 mg/kg, iv and 2 mg/kg, po. The format is ADME, organism-based. To be noted: whole blood.
Data set [12] is described as follows: Oral bioavailability in Sprague-Dawley rat at 2 mg/kg. Type of data set: ADME, organism-based. To be noted: in vivo.
The nature of data set [13]: Half life in Sprague-Dawley rat at 1 mg/kg, iv and 2 mg/kg, po. The format is ADME, organism-based. As to conditions: in vivo.
In data set [14] the target is T1, Gamma-secretase (Homo sapiens) (UniProt Q96BI3+Q9NZ42+Q8WW43+P49768+Q92542+P49810). Briefly: Inhibition of gamma-secretase in human SHSY5Y cells expressing human recombinant Swedish variant of APP K595N/M596L assessed as reduction of amyloid beta42 level after 24 hrs by DELFIA assay. Type of data set: cell-based. To be noted: SH-SY5Y.
For data set [15], the target named is T1, Gamma-secretase (Homo sapiens). Briefly: Inhibition of gamma-secretase in human SHSY5Y cells expressing human recombinant Swedish variant of APP K595N/M596L assessed as reduction of amyloid beta40 level after 24 hrs by DELFIA assay. Type of data set: cell-based. As to conditions: SH-SY5Y.
The target is the same in data set [16]. Briefly: Inhibition of gamma-secretase in human SHSY5Y cells expressing human recombinant Swedish variant of APP K595N/M596L assessed as increase of total amyloid beta level after 24 hrs by DELFIA assay. The format is cell-based. As to conditions: SH-SY5Y.

One may read the pIC50 as the negative decadic logarithm of the IC50, by convention in mol/L. Consider `COc1cc(-c2noc(N[C@@H](C)c3ccc(F)cc3)n2)ccc1-n1cnc(C)c1`, for which the pIC50 on Gamma-secretase [1] came out at 6.5; on Gamma-secretase [2] it was 4.5.
In the same order, the values of `COc1cc(-c2nnc(N[C@@H](C)c3ccc(F)cc3)s2)ccc1-n1cnc(C)c1` are 7.1 and 6.2.
The term IC50 denotes the concentration that gives 50% inhibition. `COc1cc(-c2ccc(N[C@@H](C)c3ccc(F)cc3)nc2)ccc1-c1ccnc(C)c1`: in data set [3], the IC50 is 6.31 µM. In addition, the pIC50 at Gamma-secretase [1] is 6.3; at Gamma-secretase [2], 5.2.
In the case of `CCOc1cc(-c2ccc(N[C@@H](C)c3ccc(F)cc3)nc2)ccc1-n1cnc(C)c1`, the pIC50 is listed as 6.3 on Gamma-secretase [1] and 5.3 on Gamma-secretase [2].
In the same order, the values of `Cc1cn(-c2ccc(-c3ccc(N[C@@H](C)c4ccc(F)cc4)nc3)cc2Cl)cn1` are 6.4 and 5.7.
For the molecule `COc1cc(-c2ccc(N[C@@H](C)c3ccc(F)cc3)nc2)ccc1-n1cnc(C)c1` [listing 1 of 2 here], the Kp in data set [4] amounted to 1.74. Also, the values for the concentration with Blood and in the data set on Brain were 4.98 µM and 8.75 µM, respectively. Besides, the Activity entry was “Non-toxic” in the data set with Rattus norvegicus [5]; “Non-toxic” in the data set with Rattus norvegicus [6]; “Non-toxic” with SH-SY5Y; 27.6% in the data set with Rattus norvegicus [7]; “Non-toxic” with Rattus norvegicus [9]. Also, the IC50 in data set [3] was 10 µM. The results for the pIC50 at Gamma-secretase [1] and at Gamma-secretase [2] were 6.9 and 6.1, respectively. Moreover, the concentration at 6 h in data set [8] was determined as 8.86 µM.
For `Cc1cn(-c2ccc(-c3ccc(N[C@@H](C)c4ccc(F)cc4)nc3)cc2-c2ccccc2)cn1`, the pIC50 is given as 4.8 on Gamma-secretase [1] and 5 on Gamma-secretase [2].
For `Cc1cn(-c2ccc(-c3ccc(N[C@@H](C)c4ccc(F)cc4)nc3)cc2OC(C)C)cn1`, the pIC50 at Gamma-secretase [1] is given as 5.5; at Gamma-secretase [2] it was 5.1.
On to `COc1cc(-c2ccc(N[C@@H](C)c3ccc(F)cc3)cn2)ccc1-n1cnc(C)c1`, for which, in data set [3], the IC50 was 6.31 µM. Further, the pIC50 on Gamma-secretase [1] is 6.2; on Gamma-secretase [2], 5.
For orientation: bioavailability means dose-corrected exposure relative to a reference, in per cent. In general, half-life refers to the time needed for the level to fall by half in the phase considered. Turning to `COc1cc(-c2ccc(N[C@@H](C)c3ccc(F)cc3)nc2)ccc1-n1cnc(C)c1.Cl`, in [10], the Vd amounted to 3.7 L/kg. For the same molecule, the clearance in data set [11] is 0.732 L/h/kg. In data set [12], this molecule gave a bioavailability of 100%. The half-life in data set [13] was 3.3 h.
For `COc1cc(-c2cc(C)c(N[C@@H](C)c3ccc(F)cc3)nn2)ccc1-n1cnc(C)c1`, the Activity result is reported as “Non-toxic” in the data set with Rattus norvegicus [5], “Non-toxic” with Rattus norvegicus [6], 45.7% in the data set with Rattus norvegicus [7] and “Non-toxic” with Rattus norvegicus [9]. In addition, the concentration at 6 h in data set [8] turned out to be 10.4 µM.
Regarding `CNC(=O)c1cc(-c2ccc(N[C@@H](C)c3ccc(F)cc3)nc2)ccc1-n1cnc(C)c1`, the pIC50 on Gamma-secretase [1] and at Gamma-secretase [2] was less than 4 throughout.
`COc1cc(-c2ccc(N[C@@H](C)c3ccc(F)cc3)nc2)ccc1-c1ccnnc1`: in data set [3], the IC50 was 12.6 µM. In addition, the pIC50 on Gamma-secretase [1] is listed as 6.4; on Gamma-secretase [2], 5.7.
Turning to `COc1cc(-c2ccc(N[C@@H](C)c3ccc(F)cc3)nc2)ccc1-n1cnc(C)c1` [listing 2 of 2 here], the inhibition result in [14] and in data set [15] was “Dose-dependent effect” throughout. The inhibition result in [16] was “Active”.
As to `COc1cc(-c2ccc(N[C@@H](C)c3ccc(F)cc3)nc2)ccc1-c1cc(C)ns1`, in [3], the IC50 is 15.8 µM. Also, the pIC50 on Gamma-secretase [1] is reported as 6.6; at Gamma-secretase [2], 5.7.
As for `Cc1cn(-c2ccc(-c3ccc(N[C@@H](C)c4ccc(F)cc4)nc3)cc2N(C)C)cn1`, the pIC50 at Gamma-secretase [1] is 4.3; at Gamma-secretase [2], 4.4.
Taken in the same sequence, the figures for `COc1cc(-c2cnc(N[C@@H](C)c3ccc(F)cc3)s2)ccc1-n1cnc(C)c1` were 6.1 and 4.3.
Consider `COc1cc(-c2cnc(N[C@@H](C)c3ccc(F)cc3)nc2)ccc1-n1cnc(C)c1`, for which, in data set [3], the IC50 is 10 µM. The pIC50 on Gamma-secretase [1] amounted to 6.7; on Gamma-secretase [2], 6.
`COc1cc(-c2ncc(N[C@@H](C)c3ccc(F)cc3)cn2)ccc1-n1cnc(C)c1`: in [3], the IC50 was 10 µM. The pIC50 on Gamma-secretase [1] came to 6.6; on Gamma-secretase [2] it was 5.9.
On to `Cc1cn(-c2ccc(-c3ccc(N[C@@H](C)c4ccc(F)cc4)nc3)cc2C)cn1`, for which the pIC50 at Gamma-secretase [1] stood at 5.2; on Gamma-secretase [2], 4.8.
`COc1cc(-c2ccc(N[C@@H](C)c3ccc(F)cc3)nc2)ccc1-c1sc(C)nc1C`: in data set [3], the IC50 was 10 µM. For the same molecule, the pIC50 amounted to 6.4 at Gamma-secretase [1] and 5.3 at Gamma-secretase [2].
